Source: PubChem BioAssay AID248 (DTP/NCI, 2004)
Where “and” joins values, the source holds several entries; their conditions need not be identical. Equal entries are not always repeated. Inconclusive results and toxic doses are left out. No stated cut-off is given here; in the data, active means T/C of 150% or more; inactive means T/C below 125%.

System: L1210 leukemia ip in BDF1 mice, survival T/C
Test: NCI In Vivo Anticancer Drug Screen. Data for tumor model L1210 Leukemia (intraperitoneal) in B6D2F1 (BDF1) mice
Conditions: endpoint: mean survival time, higher = longer survival
Procedure, shortened: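 Value reflects the ratio of survival in compound-treated mice to survival in vehicle-treated controls, with both groups carrying the same transplanted tumor.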

[1] = dose: 100.0 mg/kg/injection, schedule: Q04DX003 (ip), vehicle: Klucel (hydroxypropylcellulose) (HPC)
[2] = dose: 200.0 mg/kg/injection, schedule: Q01DX009 (ip), vehicle: Klucel (hydroxypropylcellulose) (HPC)
[3] = dose: 200.0 mg/kg/injection, schedule: Q04DX003 (ip), vehicle: Klucel (hydroxypropylcellulose) (HPC)
[4] = dose: 400.0 mg/kg/injection, schedule: Q01DX009 (ip), vehicle: Klucel (hydroxypropylcellulose) (HPC)
[5] = dose: 400.0 mg/kg/injection, schedule: Q04DX003 (ip), vehicle: Klucel (hydroxypropylcellulose) (HPC)
[6] = dose: 100.0 mg/kg/injection, schedule: Q01DX001 (ip), vehicle: saline
[7] = dose: 100.0 mg/kg/injection, schedule: Q01DX009 (ip), vehicle: Klucel (hydroxypropylcellulose) (HPC)
[8] = dose: 100.0 mg/kg/injection, schedule: Q01DX009 (ip), vehicle: saline with Tween-80
[9] = dose: 100.0 mg/kg/injection, schedule: Q04DX003 (ip), vehicle: saline with Tween-80
[10] = dose: 200.0 mg/kg/injection, schedule: Q01DX009 (ip), vehicle: saline with Tween-80
[11] = dose: 200.0 mg/kg/injection, schedule: Q04DX003 (ip), vehicle: saline with Tween-80
[12] = dose: 400.0 mg/kg/injection, schedule: Q01DX009 (ip), vehicle: saline with Tween-80
[13] = dose: 400.0 mg/kg/injection, schedule: Q04DX003 (ip), vehicle: saline with Tween-80
[14] = dose: 100.0 mg/kg/injection, schedule: Q01DX001 (ip), vehicle: Klucel (hydroxypropylcellulose) (HPC)
[15] = dose: 200.0 mg/kg/injection, schedule: Q01DX001 (ip), vehicle: Klucel (hydroxypropylcellulose) (HPC)
[16] = dose: 400.0 mg/kg/injection, schedule: Q01DX001 (ip), vehicle: Klucel (hydroxypropylcellulose) (HPC)

Measured: T/C

OC(Cc1[nH]c2ccccc2c1C(O)(C(F)(F)F)C(F)(F)F)(C(F)(F)F)C(F)(F)F
inactive: dose: 100.0 mg/kg/injection, schedule: Q04DX003 (ip), vehicle: other 109 % of control | dose: 200.0 mg/kg/injection, schedule: Q04DX003 (ip), vehicle: other 109 % of control | dose: 400.0 mg/kg/injection, schedule: Q04DX003 (ip), vehicle: other 98 % of control

O=C1c2cccc3cc([N+](=O)[O-])cc(c23)C(=O)N1Cc1cccnc1
inactive: dose: 100.0 mg/kg/injection, schedule: Q04DX003 (ip), vehicle: carboxymethylcellulose (CMC) 93 % of control | dose: 200.0 mg/kg/injection, schedule: Q04DX003 (ip), vehicle: carboxymethylcellulose (CMC) 90 % of control | dose: 400.0 mg/kg/injection, schedule: Q04DX003 (ip), vehicle: carboxymethylcellulose (CMC) 97 % of control

O=S(=O)(O)CNc1cc(Cl)cc(Cl)c1
inactive: [1] 90 % of control | [2] 93 % of control | [3] 88 % of control | [4] 91 % of control | [5] 92 % of control

O=C(O)c1ccc2c3c(ccc(C(=O)O)c13)CC2
inactive: [6] 104 % of control

COc1ccccc1NC(=O)Nc1ccccc1C
inactive: [7] 96 % of control | [1] 94 % of control | [2] 89 % of control | [3] 100 % of control | [4] 94 % of control | [5] 90 % of control

Cc1cc(N(CCCOS(C)(=O)=O)CCCOS(C)(=O)=O)ccc1C=Nc1cc(Br)c(O)c(Br)c1
inactive: [8] 94 % of control | [9] 92 % of control | [10] 94 % of control | [11] 90 % of control | [12] 89 % of control | [13] 94 % of control

N#CC(C#N)N=O (tested in a mixture with another compound)
inactive: dose: 25.0 mg/kg/injection, schedule: Q04DX002 (ip), vehicle: saline 89 % of control | dose: 50.0 mg/kg/injection, schedule: Q04DX002 (ip), vehicle: saline 101 % of control | dose: 100.0 mg/kg/injection, schedule: Q04DX002 (ip), vehicle: saline 95 % of control and 97 % of control | dose: 200.0 mg/kg/injection, schedule: Q04DX002 (ip), vehicle: saline 105 % of control

NC(=O)NC(=O)c1nccnc1C(=O)O
inactive: dose: 100.0 mg/kg/injection, schedule: Q01DX001 (ip), vehicle: water 88 % of control | dose: 200.0 mg/kg/injection, schedule: Q01DX001 (ip), vehicle: water 101 % of control | dose: 400.0 mg/kg/injection, schedule: Q01DX001 (ip), vehicle: water 87 % of control

O=Cc1ccc(OC(=O)Nc2ccc([N+](=O)[O-])cc2)cc1
inactive: [7] 92 % of control | [2] 90 % of control | [4] 95 % of control

CC(=O)Oc1ccc(N(CCO)CCO)cc1OC(C)=O
inactive: dose: 1.17 mg/kg/injection, schedule: Q01DX001 (ip), vehicle: water 103 % of control | dose: 2.34 mg/kg/injection, schedule: Q01DX001 (ip), vehicle: water 97 % of control | dose: 4.68 mg/kg/injection, schedule: Q01DX001 (ip), vehicle: water 100 % of control

O=C1c2cc(Cl)ccc2-c2c(NC(=O)C(Cl)Cl)cc(Cl)cc21
inactive: dose: 100.0 mg/kg/injection, schedule: Q01DX001 (ip), vehicle: carboxymethylcellulose (CMC) 91 % of control | dose: 200.0 mg/kg/injection, schedule: Q01DX001 (ip), vehicle: carboxymethylcellulose (CMC) 93 % of control | dose: 400.0 mg/kg/injection, schedule: Q01DX001 (ip), vehicle: carboxymethylcellulose (CMC) 96 % of control

CC(CO)CCC(=O)C(C)C1C(=O)CC2CC3CC(O)CCC3(C)CC21C (stereo not given)
inactive: [14] 98 % of control | [15] 105 % of control | [16] 119 % of control

NCCCCC(N)C(=O)NCCCNCCCCNCCCNC(=O)C(N)CCCCN (stereo not given)
inactive: dose: 3.0 mg/kg/injection, schedule: Q01DX Z (ip), vehicle: saline 104 % of control | dose: 10.0 mg/kg/injection, schedule: Q01DX Z (ip), vehicle: saline 94 % of control | dose: 30.0 mg/kg/injection, schedule: Q01DX Z (ip), vehicle: saline 93 % of control | dose: 100.0 mg/kg/injection, schedule: Q01DX Z (ip), vehicle: saline 106 % of control

CN(C)CCSCC(OC(=O)c1ccccc1)c1ccccc1 (stereo not given)
inactive: [9] 94 % of control

CC(C)=CC(=O)Nc1cccc(O)c1
inactive: [8] 96 % of control | [10] 91 % of control | [12] 92 % of control

CC(C#N)Oc1cccc2ccccc12 (stereo not given)
inactive: dose: 100.0 mg/kg/injection, schedule: Q01DX009 (ip), vehicle: DMSO 87 % of control | dose: 100.0 mg/kg/injection, schedule: Q04DX003 (ip), vehicle: DMSO 92 % of control | dose: 200.0 mg/kg/injection, schedule: Q01DX009 (ip), vehicle: DMSO 87 % of control | dose: 200.0 mg/kg/injection, schedule: Q04DX003 (ip), vehicle: DMSO 87 % of control | dose: 400.0 mg/kg/injection, schedule: Q04DX003 (ip), vehicle: DMSO 103 % of control

CCCCCCCCCCOC(=O)CCN1CC1
inactive: [9] 109 % of control | [11] 96 % of control

Cn1c(CO)cc2ccccc21
inactive: [8] 98 % of control | [9] 96 % of control | [10] 98 % of control | [11] 96 % of control | [12] 88 % of control | [13] 98 % of control

Fc1ccc(/C=N\N=C(N/N=C/c2ccc(F)cc2)N/N=C/c2ccc(F)cc2)cc1
inactive: dose: 12.5 mg/kg/injection, schedule: Q04DX003 (ip), vehicle: saline with Tween-80 101 % of control | dose: 15.0 mg/kg/injection, schedule: Q01DX Z (ip), vehicle: carboxymethylcellulose (CMC) 97 % of control | dose: 25.0 mg/kg/injection, schedule: Q04DX003 (ip), vehicle: saline with Tween-80 101 % of control | dose: 30.0 mg/kg/injection, schedule: Q01DX Z (ip), vehicle: carboxymethylcellulose (CMC) 97 % of control | dose: 30.0 mg/kg/injection, schedule: Q01DX Z (oral), vehicle: carboxymethylcellulose (CMC) 100 % of control | dose: 50.0 mg/kg/injection, schedule: Q04DX003 (ip), vehicle: saline with Tween-80 104 % of control | dose: 60.0 mg/kg/injection, schedule: Q01DX Z (ip), vehicle: carboxymethylcellulose (CMC) 101 % of control | dose: 60.0 mg/kg/injection, schedule: Q01DX Z (oral), vehicle: carboxymethylcellulose (CMC) 93 % of control and 100 % of control | [1] 90 % of control | dose: 120.0 mg/kg/injection, schedule: Q01DX Z (ip), vehicle: carboxymethylcellulose (CMC) 89 % of control | dose: 120.0 mg/kg/injection, schedule: Q01DX Z (oral), vehicle: carboxymethylcellulose (CMC) 98 % of control and 100 % of control | [3] 100 % of control | dose: 240.0 mg/kg/injection, schedule: Q01DX Z (oral), vehicle: carboxymethylcellulose (CMC) 102 % of control and 105 % of control | [5] 87 % of control

O=C(O)[C@H]1CC2CCC1C2 (stereo not given in full)
inactive: [9] 98 % of control | [11] 102 % of control | [13] 93 % of control

CSc1cc(N)nc(N)c1[N+](=O)[O-]
inactive: [14] 99 % of control | [15] 96 % of control | [16] 94 % of control

OCC12COC(c3ccccc3)N1C(c1ccccc1)OC2 (stereo not given)
inactive: [7] 102 % of control | [1] 102 % of control | [2] 102 % of control | [3] 102 % of control | [4] 97 % of control | [5] 100 % of control

O=C1c2ccccc2C(=O)c2c(Nc3cccc(S(=O)(=O)N(CCO)CCO)c3)ccc(O)c21
inactive: dose: 50.0 mg/kg/injection, schedule: Q01DX009 (ip), vehicle: saline with Tween-80 97 % of control | [8] 97 % of control | [10] 97 % of control

CN(C)c1ccc(C=O)cc1[N+](=O)[O-]
inactive: dose: 50.0 mg/kg/injection, schedule: Q01DX009 (ip), vehicle: Klucel (hydroxypropylcellulose) (HPC) 94 % of control | [7] 97 % of control | [1] 97 % of control | [2] 100 % of control | [3] 92 % of control | [5] 100 % of control

CC1CCCC1Sc1ccccc1 (stereo not given)
inactive: [6] 91 % of control | dose: 100.0 mg/kg/injection, schedule: Q01DX009 (ip), vehicle: acetone 99 % of control | dose: 200.0 mg/kg/injection, schedule: Q01DX001 (ip), vehicle: saline 91 % of control | dose: 200.0 mg/kg/injection, schedule: Q01DX009 (ip), vehicle: acetone 106 % of control | dose: 400.0 mg/kg/injection, schedule: Q01DX001 (ip), vehicle: saline 93 % of control | dose: 400.0 mg/kg/injection, schedule: Q01DX009 (ip), vehicle: acetone 92 % of control
